From patent publication US7041647B2, “Synthetic peptide having an ionophoric and antimicrobial activity” (Corporacion Para Investigaciones Biologicas, priority 2003, dated 2006)
No end group written: not given here.

Key:
[1] = test system: inner membrane of rat liver mitochondria; experiment: Mitochondrial swelling in isotonic media (ionophoric activity); assay type: biochemical; settings: pH 7.4
Experimental: FIG. 1 Ionophoric activity of P1 in the inner membrane of rat liver mitochondria. The mitochondria at a concentration of 0.5 mg/ml of protein were incubated in the media 125 mM KNO3, 5 mM HEPES-tris, pH 7.4 (Panel A) and 125 mM NH4NO3, 5 mM HEPES-tris, pH 7.4 (Panel B), both media were supplemented with 2.5 μM rotenone and 1 μM oligomycin (RO), added just after the mitochondria. The peptide P1 was added at the following final concentrations: 1.8 μM of P1 (curves a); 0.36 μM of P1 (curves b); 0.18 μM of P1 (curves c); 0.18 μM of P1 plus 2.5 mM of succinate (curves d); 0.12 μM of valinomycin (curve e), and 2 μM of FCCP, (curve f). In Panel C, the permeability of the inner mitochondrial membrane induced by the peptide P1 was evaluated for the following cations: H^+, K^+, Na^+, and Tris^+. […]
The mitochondria were isolated and prepared as described above. […] The mitochondrial swelling was spectrophotometrically monitored at 540 nm (Turner Spectrophotometer, model SP-850, USA, modified with a magnetic mini-stirrer). The curves were recorded in a graphical recorder (Linseis model L250E, USA), scanned and then processed in the program Adobe Photoshop V5.0. […]

[2] = Solubility in aqueous solutions; assay type: physicochemical
Excerpt: The peptides were synthesized by the method of solid phase synthesis (Merrifield B. 1963. Solid Phase Peptide Synthesis, Journal American Chemical Society. 85: 2149–2154; and Houghten R. A. 1985. General methods for the rapid solid phase synthesis of large numbers of peptides: specificity of antigen antibody interaction at the level of individual amino acids. Proc. Natl. Acad. Sci. USA. 82: 5131–5135.) under the methods of good manufacture practices (GMP). A resin p-methyl benzidrylamine (MBHA) (0.7 meq/g), t-boc amino acids (Bachem, USA) and the process of high-low cleavage were used in the synthesis. (Andreu D, Merrifield RB, Steiner H, Boman HG. 1983. Solid-phase synthesis of Cecropin A and Related Peptides. Proc. Natl. Acad. Sci USA 80: 6475–6479.). Once synthesized, the peptides were extracted with 10% acetic acid in water. The peptides were purified by high pressure liquid chromatography (HPLC), in a reverse phase column, and they were analyzed by means of mass spectrometry (Maldi-Tof). The peptides were lyophilized and kept in powder at 4° C. until its use.

[3] = test system: Staphylococcus aureus (ATCC 25923); settings: ATCC 25923, 2 h, 7.1 μM
[4] = test system: Streptococcus pneumoniae (ATCC 49619); settings: ATCC 49619, 2 h, 7.1 μM
human red blood cells = experiment: Hemolytic activity in human erythrocytes; assay type: cell-based; settings: for Percentage of hemolysis, X ± SD: hematocryte 0.5%, 1 h room temperature
Experimental: FIG. 5 Effect of P1 in human red blood cells; Human red blood cells were resuspended to a hematocryte of 0.5% in the isotonic solutions indicated in materials and methods. The peptide P1 was added at different concentrations to the cellular suspensions and incubated for 1 hour at room temperature. The supernatants were obtained by centrifugation of the suspensions at 10000 rpm for 5 min at 4° C. (International Equipment Company IEC, Centra MP4R; rotor 851), the absorbance of the supernatants was registered at 415 nm with a spectrophotometer (BIORAD). The results were expressed as percentage of hemolysis relative to the maximum hemolysis (erythrocytes hemolysed in 0.01% Tween-20).
FIG. 6 The hemolysis caused by P1 in the erythrocytes decreases with an increase in the hematocryte; human red blood cells were resuspended at different hematocrytes: 0.5%, 2.5% and 10% in 150 mM NaCl, 5 mM KCl, 5 mM Glucose, 10 mM HEPES-tris, pH 7.4. Peptide P1 was added at different concentrations in the cellular suspension and incubated during 1 h at room temperature. The supernatants were obtained by centrifugation at 10000 rpm for 5 min at 4° C. and the absorbance at 415 nm was determined with a BIORAD spectrophotometer. The results were expressed as percentage of hemolysis relative to the maximum hemolysis (erythrocytes lysed in 0.01% Tween-20).
The hemolytic activity of peptide P1 was determined in heparinized human red blood cells from a volunteer (final concentration of heparin 20.4 U/ml), and washed three times in 150 mM NaCl, 9 mM Na2PO4, pH 7.3, at room temperature. The red blood cells were resuspended to an hematocryte of 0.5% in isotonic solutions 150 mM NaCl, 5 mM KCl, 5 mM Glucose, 10 mM HEPES-tris, pH 7.4; 155 mM KCl, 5 mM Glucose, 10 mM HEPES-tris, pH 7.4; 300 mM saccharose, 5 mM KCl, 5 mM Glucose, 10 mM HEPES-tris, pH 7.4; 150 mM polyethyleneglycol-1500 (PEG-1500), 5 mM KCl, 5 mM Glucose, 10 mM HEPES-tris, pH 7.4. […] The supernatants were recovered by centrifugation of the cellular suspension at 10000 rpm for 5 min at 4° C. and the absorbance at 415 nm was determined in a BIORAD spectrophotometer. The averages and standard deviations were calculated and the data were introduced to the program SigmaPlot V4.0 in order to generate the corresponding graphs (FIGS. 3 and 4).

[5] = test system: Clostridium perfringens (ATCC 13124); settings: ATCC 13124, 2 h, 7.1 μM
[6] = test system: Bacteroides fragilis (ATCC 25285); settings: ATCC 25285, 2 h, 7.1 μM
[7] = test system: Escherichia coli (ATCC 25922); settings: ATCC 25922, 2 h, 7.1 μM

N#CC(C#N)=NNc1ccc(OC(F)(F)F)cc1 [FCCP, carbonyl-cyanide-p-trifluoromethoxy phenylhydrazone]
Speed of mitochondrial swelling (slope) ([1]; 2 μM FCCP, medium 125 mM NH4NO3, 5 mM HEPES-tris, FIG. 1 Panel B curve f): 3.5

CC(C)[C@@H]1NC(=O)[C@H](C)OC(=O)[C@@H](C(C)C)NC(=O)[C@@H](C(C)C)OC(=O)[C@H](C(C)C)NC(=O)[C@H](C)OC(=O)[C@@H](C(C)C)NC(=O)[C@@H](C(C)C)OC(=O)[C@H](C(C)C)NC(=O)[C@H](C)OC(=O)[C@@H](C(C)C)NC(=O)[C@@H](C(C)C)OC1=O [valinomycin]
Rate of mitochondrial swelling (slope) ([1]; 0.12 μM valinomycin, medium 125 mM KNO3, 5 mM HEPES-tris, FIG. 1 Panel A curve e): 1.4

VAPIAKYLATALAKWALKQGFAKLKS-NH2 (C-terminus assumed) [P1]
Solubility in aqueous solutions [2]: highly soluble | % of growth inhibition [3]: 100% | % of growth inhibition [4]: 100% | Percentage of hemolysis, X ± SD (human red blood cells; 0.36 μM P1, isotonic medium KCl 150 mM): 17.25 ± 1.05% | Percentage of hemolysis, X ± SD (human red blood cells; 0.36 μM P1, isotonic medium NaCl 150 mM): 3.75 ± 0.05% | Percentage of hemolysis, X ± SD (human red blood cells; 0.36 μM P1, isotonic medium PEG-1500 150 mM): 0.25 ± 0.07% | Percentage of hemolysis, X ± SD (human red blood cells; 0.36 μM P1, isotonic medium Saccharose 150 mM): 57.5 ± 0.73% | Permeability order of hemolytic activity by isotonic medium (human red blood cells; 0.36 μM peptide, order disappears at 3.6 μM): saccharose>KCl>NaCl | Percentage of hemolysis, X ± SD (human red blood cells; 3.6 μM P1, isotonic medium KCl 150 mM): 64.25 ± 1.23% | Percentage of hemolysis, X ± SD (human red blood cells; 3.6 μM P1, isotonic medium NaCl 150 mM): 59.25 ± 1.15% | Percentage of hemolysis, X ± SD (human red blood cells; 3.6 μM P1, isotonic medium PEG-1500 150 mM): 2.75 ± 0.3% | Percentage of hemolysis, X ± SD (human red blood cells; 3.6 μM P1, isotonic medium Saccharose 150 mM): 75.5 ± 10.38% | Hemolytic activity with increased hematocryte (human red blood cells; hematocryte increased at 10%, NaCl medium): decreases dramatically | Hemolytic activity in a physiological solution (human red blood cells; hematocryte is high): insignificant | Hemolytic activity (in words) (human red blood cells; isotonic medium PEG-1500): does not show hemolytic activity | % of growth inhibition [5]: 100% | % of growth inhibition [6]: 100% | % of growth inhibition [7]: 100%
